How the values were obtained:
Format in all cases: cell-based
MDA-MB-231 = assay: MTT cytotoxic activity against breast MDA-MB-231 cancer cell line; conditions: MTT assay, 24 h treatment
Description: All the synthesised compounds were screened for their cytotoxic activity against breast MDA-MB-231 cancer cell line and compounds 6 and 12 against breast MCF-10A cell line taking CA-4 as a positive control for the analysis. The in vitro cytotoxicity results of the prepared compounds were systematised in Table 1. […] Structurally, the prepared molecules contain three structural variations; including rotatable hydrazide derivatives, the core exchange with imidazolone ring, and the ring expansion with triazinone motif. […] It is noticed that directly attached benzene ring to triazinone scaffold (compound 6) or bioisosteric group (thiazolyl ester) as in compound 12, may contribute to the astonishing cytotoxicity against breast MDA-MB-231 cancer cells.
To measure the cytotoxic activity of the synthesised derivatives 2a–13e in breast cancer (MDA-MB-231) cell line. MTT assay method was applied to assess cell viability assay. All experimental steps were conducted as reported earlier.
Part I: Biological Studies
4.3. Biological evaluation
4.3.1. Cytotoxic activity evaluation
The cytotoxic actvity of the synthesized derivatives 2a-13e was measured in MDA-MB-231 breast cancer cell line and derivatives 6 and 12 in MCF-10A […].
Cell viability assay was assessed using MTT assay method. Cells at density of 1 x 104 were seeded in a 96-well plate at 37 °C for 24 h under 5% CO2. After incubation, the cells were treated with different concentrations of the test schiff bases 2a-13e and incubated for 24 h, then 20 µl of MTT solution at 5 mg/mL was applied and incubated for 4 h at 37 °C.
Dimethyl sulphoxide (DMSO) in volume of 100 µl was added to each well to dissolve the purple formazan that had formed. The color intensity of the formazan product, which represents the growth condition of the cells, is quantified by using an ELISA plate reader (EXL 800, USA) at 570 nm absorbance. The experimental conditions were carried out with at least three replicates, and the experiments were repeated at least three times. […]

MDA-MB-231 cells = assay: Cell cycle analysis by DNA flow cytometry; conditions: MDA-MB-231, at IC50, 24 h; for %Pre-G1 (pre-G1 apoptosis): untreated control 1.99%; for %DIP G2/M (cells in G2/M phase): untreated control 5.64%
Experimental: Targeting the cell cycle division at distinct checkpoints of cancer cells has been identified as a promising strategy for cancer chemotherapy.
Cell cycle analysis in MDA-MB-231 cells was investigated using a fluorescent Annexin V-FITC/PI detection kit (BioVision EZCell™ Cell Cycle Analysis Kit Catalog #K920) by flow cytometry assay. All experimental steps were performed as reported earlier.
4.3.3. Cell cycle analysis of compound 6 and 12
Cell cycle analysis in MDA-MB-231 cells was investigated using fluorescent Annexin V-FITC/ PI detection kit (BioVision EZCellTM Cell Cycle Analysis Kit Catalog #K920) by flow cytometry assay. MDA-MB-231 cells at a density of 2 × 10^5 per well were harvested and washed twice in PBS. After that, the cells were incubated at 37 °C and 5% CO2. The […]
washed twice in PBS, fixed with 70% ethanol, rinsed again with PBS. Afterward, medium was stained with DNA fluorochrome PI for 15 min at 37 °C. […]
All experiments were done in triplicates. […]

caspase 3/7 = assay: Caspase 3/7 green flow cytometry assay in MDA-MB-231 cells; conditions: MDA-MB-231, at IC50, 24 h
Description: Further, it is important to check effector caspase 3/7. The cleavage of caspases is specifically responsible for programmed cell death and apoptosis. […] The results were shown in Figure 5 and the expression level of caspase 3/7 was increased when compared with no control cells.
Caspase 3/7 in MDA-MB-231 cells was detected using CellEvent® Caspase 3/7 Green Detection Flow Cytometry Assay Kit. Caspase 3/7 activity in the MDA-MB-231 cell line was detected in the presence of compounds 6 and 12 at their IC50 concentration (µM) using CellEvent® caspase 3/7 green detection flow cytometry assay kit according to the manufacturer’s directions. All experimental steps were conducted as reported earlier.
4.3.4.3. Caspase 3/7 assay for compounds 6 and 12
Caspase 3/7 in MDA-MB-231 cells was investigated using CellEvent® Caspase 3/7 Green Detection Flow Cytometry Assay Kit. Caspase 3/7 activity in MDA-MB-231 cell line was detected in the presence of compounds 6 and 12 at their IC50 concentration (µM) using CellEvent® caspase 3/7 green detection flow cytometry assay kit according to manufacturer’s directions. […] cells at a density of 2.5 × 10^5 per well were harvested and washed with ice cold PBS, and cell lysates were prepared and combined with reaction buffer and incubated with specific colorimetric substrates (Caspase 3/7 Detection Reagent) at 37 °C for 6 h. Detection reagent is composed of DNA binding dye conjugated to caspase 3 and caspase 7 recognition sequence (DEVD) by a short peptide linker. The released DNA binding dye binds DNA producing a bright and stable signal. Finally, the samples were analyzed at 488 nm in a BD FACS Calibur flow cytometer. All experiments were performed in triplicates.
Information Classification: General 4

Compound: ethyl 2-(2-(6-oxo-5-(3,4,5-trimethoxybenzylidene)-3–(3,4,5-trimethoxyphenyl)-5,6-dihydro-1,2,4-triazin-2(1H)-yl)thiazol-4-yl)acetate [Compound 12]
- IC50 (MDA-MB-231): 1710 ± 110 nM
- %Pre-G1 (pre-G1 apoptosis) (MDA-MB-231 cells): 29.81%
- %DIP G2/M (cells in G2/M phase) (MDA-MB-231 cells): 26.75%
- Casp3/7 (percentage of activated caspase 3/7) (caspase 3/7): 7.51%
- increase in caspase 3/7 activation relative to untreated control (caspase 3/7): ~9.16 fold

Compound: COc1cc(C=C2N=C(c3cc(OC)c(OC)c(OC)c3)N(c3ccccc3)NC2=O)cc(OC)c1OC [Compound 6, 2-phenyl-5-(3,4,5-trimethoxybenzylidene)-3-(3,4,5-trimethoxyphenyl)-1,2-dihydro-1,2,4-triazin-6(5H)-one]
- IC50 (MDA-MB-231; Homo sapiens, MDA-MB-231): 1360 ± 100 nM
- %Pre-G1 (pre-G1 apoptosis) (MDA-MB-231 cells): 43.50%
- %DIP G2/M (cells in G2/M phase) (MDA-MB-231 cells): 35.09%
- Casp3/7 (percentage of activated caspase 3/7) (caspase 3/7): 12.87%
- increase in caspase 3/7 activation relative to untreated control (caspase 3/7): about 15.70 fold

From paper PMC9518609, “Design and synthesis of new trimethoxylphenyl-linked combretastatin analogues loaded on diamond nanoparticles as a panel for ameliorated solubility and antiproliferative activity” (Journal of Enzyme Inhibition and Medicinal Chemistry, 2022)
